Measurements reported in US20230413819A1, “METHODS FOR CONTROLLING FLEA AND TICK INFESTATIONS IN A MAMMAL” (In the Bowl Animal Health, Inc., priority 2021, published 2023).
Read-outs that look alike come from different tables or passages of the source.

What was measured:
[1] = Average plasma concentration of mivorilaner, various daily oral doses (Examples 5 and 11); format: in vivo, dogs; settings: dog, Group 5, 1.0 mg/kg/day oral, fed
[2] = Average plasma concentration of mivorilaner, medicated daily feed (Example 9); format: in vivo, dogs
Procedure: Each dog in a treatment group (test groups 2-4) is to receive a medicated daily feed from study days 0-49. The medicated daily feed is to be offered to the dogs for 1 hour on each of days 0-49 according to test groups listed in TABLE 11.

Ctenocephalides felis = experiment: Efficacy of isoxazoline (mivorilaner) per os to dogs against Ctenocephalides felis (Example 10); format: in vivo; settings: 0.75 mg/kg/day oral
Description: Methods: A pool of 14 dogs are to be preliminarily infested with ˜100 unfed adult C. felis in order to identify dogs that can suitably sustain a reliable infestation rate, defined as approximately 50% fleas being live at the end of a 48-hour period. The 12 dogs with the highest live flea counts are to be selected for inclusion in the study. The dogs are to be divided into a control group and a treatment group.
The dogs are to be housed individually during the study period and are to be fed a commercial dry dog food ration with ad libitum access to water.
Each dog in the treatment group is to receive by mouth a liquid formulation of isoxazoline. The dosage of 0.75 mg/kg is to be administered to the dogs on each of days 0-29.
Dogs in the control group are not to receive isoxazoline or any other flea control treatment. Each dog in the treatment group is to be offered its daily ration (dry food) and the individual doses of liquid formulation are to be administered after the individual dog has eaten at least 25% of its total daily ration. After receiving the dose of isoxazoline, the dogs are to be allowed to continue eating. This mimics incorporating the isoxazoline in feed. […]
Results: referring now to FIG. 16, the arithmetic mean efficacy in reduction of live adult flea counts is shown. The Percent Efficacy is calculated according to the formula: […]

[3] = Plasma concentration of mivorilaner, 0.75 mg/kg daily oral (Examples 4 and 10); format: in vivo, dogs; settings: dog, 0.75 mg/kg/day

## O=C(CNC(=O)c1sc(C2=NO[C@@](c3cc(Cl)c(F)c(Cl)c3)(C(F)(F)F)C2)c2c1CCC2)NCC(F)F [mivorilaner, 3-[(5S)-5-(3,5-dichloro-4-fluorophenyl)-5-(trifluoromethyl)-4,5-dihydroisoxazol-3-yl]-N-[2-[(2,2-difluoroethyl)amino]-2-oxoethyl]-5,6-dihydro-4H-cyclopenta[c]thiophene-1-carboxamide]
[1]; 720 h after initial dose
  concentration at 720 h: 3760 ng/mL
[1]; 888 h after initial dose
  concentration at 888 h: 3860 ng/mL
[1]; 1056 h after initial dose
  concentration at 1056 h: 4260 ng/mL
[1]; 1224 h after initial dose
  concentration at 1224 h: 4840 ng/mL
[1]; 1440 h after initial dose
  concentration at 1440 h: 4140 ng/mL
[2]; Group 2, 106 mg/kg feed (anticipated 1 mg/kg daily), 1 hr
  average plasma concentration of isoxazoline (mivorilaner): 49.98
[2]; Group 2, 106 mg/kg feed (anticipated 1 mg/kg daily), 3 hr
  average plasma concentration of isoxazoline (mivorilaner): 292.00
[2]; Group 2, 106 mg/kg feed (anticipated 1 mg/kg daily), 6 hr
  average plasma concentration of isoxazoline (mivorilaner): 539.00
[2]; Group 2, 106 mg/kg feed (anticipated 1 mg/kg daily), 10 hr
  average plasma concentration of isoxazoline (mivorilaner): 505.40
[2]; Group 2, 106 mg/kg feed (anticipated 1 mg/kg daily), 24 hr
  average plasma concentration of isoxazoline (mivorilaner): 458.60
[2]; Group 2, 106 mg/kg feed (anticipated 1 mg/kg daily), 48 hr
  average plasma concentration of isoxazoline (mivorilaner): 771.83
[2]; Group 2, 106 mg/kg feed (anticipated 1 mg/kg daily), 96 hr
  average plasma concentration of isoxazoline (mivorilaner): 1570.50
[2]; Group 2, 106 mg/kg feed (anticipated 1 mg/kg daily), 168 hr
  average plasma concentration of isoxazoline (mivorilaner): 2156.67
[2]; Group 2, 106 mg/kg feed (anticipated 1 mg/kg daily), 240 hr
  average plasma concentration of isoxazoline (mivorilaner): 3003.33
[2]; Group 2, 106 mg/kg feed (anticipated 1 mg/kg daily), 336 hr
  average plasma concentration of isoxazoline (mivorilaner): 3290.00
[2]; Group 3, 106 mg/kg feed (anticipated 1 mg/kg daily), 1 hr
  average plasma concentration of isoxazoline (mivorilaner): 40.41
[2]; Group 3, 106 mg/kg feed (anticipated 1 mg/kg daily), 3 hr
  average plasma concentration of isoxazoline (mivorilaner): 264.83
[2]; Group 3, 106 mg/kg feed (anticipated 1 mg/kg daily), 6 hr
  average plasma concentration of isoxazoline (mivorilaner): 467.50
[2]; Group 3, 106 mg/kg feed (anticipated 1 mg/kg daily), 10 hr
  average plasma concentration of isoxazoline (mivorilaner): 419.17
[2]; Group 3, 106 mg/kg feed (anticipated 1 mg/kg daily), 24 hr
  average plasma concentration of isoxazoline (mivorilaner): 435.17
[2]; Group 3, 106 mg/kg feed (anticipated 1 mg/kg daily), 48 hr
  average plasma concentration of isoxazoline (mivorilaner): 781.83
[2]; Group 3, 106 mg/kg feed (anticipated 1 mg/kg daily), 96 hr
  average plasma concentration of isoxazoline (mivorilaner): 1596.67
[2]; Group 3, 106 mg/kg feed (anticipated 1 mg/kg daily), 168 hr
  average plasma concentration of isoxazoline (mivorilaner): 2406.67
[2]; Group 3, 106 mg/kg feed (anticipated 1 mg/kg daily), 240 hr
  average plasma concentration of isoxazoline (mivorilaner): 3026.67
[2]; Group 3, 106 mg/kg feed (anticipated 1 mg/kg daily), 336 hr
  average plasma concentration of isoxazoline (mivorilaner): 3516.67
[2]; Group 4, 318 mg/kg feed (anticipated 3 mg/kg daily), 1 hr
  average plasma concentration of isoxazoline (mivorilaner): 143.75
[2]; Group 4, 318 mg/kg feed (anticipated 3 mg/kg daily), 3 hr
  average plasma concentration of isoxazoline (mivorilaner): 846.50
[2]; Group 4, 318 mg/kg feed (anticipated 3 mg/kg daily), 6 hr
  average plasma concentration of isoxazoline (mivorilaner): 1265.67
[2]; Group 4, 318 mg/kg feed (anticipated 3 mg/kg daily), 10 hr
  average plasma concentration of isoxazoline (mivorilaner): 1198.17
[2]; Group 4, 318 mg/kg feed (anticipated 3 mg/kg daily), 24 hr
  average plasma concentration of isoxazoline (mivorilaner): 1021.17
[2]; Group 4, 318 mg/kg feed (anticipated 3 mg/kg daily), 48 hr
  average plasma concentration of isoxazoline (mivorilaner): 2011.67
[2]; Group 4, 318 mg/kg feed (anticipated 3 mg/kg daily), 96 hr
  average plasma concentration of isoxazoline (mivorilaner): 3928.33
[2]; Group 4, 318 mg/kg feed (anticipated 3 mg/kg daily), 168 hr
  average plasma concentration of isoxazoline (mivorilaner): 6461.67
[2]; Group 4, 318 mg/kg feed (anticipated 3 mg/kg daily), 240 hr
  average plasma concentration of isoxazoline (mivorilaner): 8696.67
[2]; Group 4, 318 mg/kg feed (anticipated 3 mg/kg daily), 336 hr
  average plasma concentration of isoxazoline (mivorilaner): 11600.00
Ctenocephalides felis
  day after initial administration by which the treatment is effective (reduction of live adult flea counts): ≤ 4 days
[3]; 0.75 mg/kg/day oral days 0-29, Day 3, read-out: Mivorilaner Concentration, Average of 6 canines
  concentration at 3 day: 674 ng/mL
[3]; 0.75 mg/kg/day oral days 0-29, Day 3, read-out: Mivorilaner Concentration, individual canines
  concentration at 3 day: 648 ng/mL
[3]; 0.75 mg/kg/day oral days 0-29, Day 7, read-out: Mivorilaner Concentration, Average of 6 canines
  concentration at 7 day: 1450 ng/mL
[3]; 0.75 mg/kg/day oral days 0-29, Day 7, read-out: Mivorilaner Concentration, individual canines
  concentration at 7 day: 1620 ng/mL
[3]; 0.75 mg/kg/day oral days 0-29, Day 14, read-out: Mivorilaner Concentration, Average of 6 canines
  concentration at 14 day: 2100 ng/mL
[3]; 0.75 mg/kg/day oral days 0-29, Day 14, read-out: Mivorilaner Concentration, individual canines
  concentration at 14 day: 2530 ng/mL
[3]; 0.75 mg/kg/day oral days 0-29, Day 21, read-out: Mivorilaner Concentration, Average of 6 canines
  concentration at 21 day: 2720 ng/mL
[3]; 0.75 mg/kg/day oral days 0-29, Day 21, read-out: Mivorilaner Concentration, individual canines
  concentration at 21 day: 2820 ng/mL
[3]; 0.75 mg/kg/day oral days 0-29, Day 30, read-out: Mivorilaner Concentration, Average of 6 canines
  concentration at 30 day: 2630 ng/mL
[3]; 0.75 mg/kg/day oral days 0-29, Day 37, read-out: Mivorilaner Concentration, Average of 6 canines
  concentration at 37 day: 2020 ng/mL
[3]; 0.75 mg/kg/day oral days 0-29, Day 37, read-out: Mivorilaner Concentration, individual canines
  concentration at 37 day: 2410 ng/mL
